Columns and labels:
[1] = tested on: experimental type 1 diabetic nephropathy; conditions: previous studies (24); cited from earlier work
[2] = tested on: Zucker diabetic fatty rats (ZDF, fa/fa); test: Kidney histology, gene and protein expression and lipid peroxidation (Example 2); format: in vivo, rat
Experimental: FIG. 9. Representative photomicrographs of immunohistochemicals stainings of kidney tissues. A. Periodic Acid-Metheamine Silver (PAMS); B, Masson'S Trichrome; C, AGE; and D, RAGE stainings of kidneys from lean, ZDF and LR-90 treated ZDF rats.
FIG. 10. mRNA expression of TGF-B1, CTGF, fibronectin and RAGE in the kidney cortex. Renal cortices from each treatment group were analyzed by for TGF-B1, CTGF, fibronectin and RAGE gene expression by RT-PCR. A. Representative gel profiles; B, Quantitative results of band densities. 18s/18 sII were used as internal controls.
FIG. 11. Protein expression of TGF-B1 and CTGF in the kidney cortex. Renal cortices from each treatment group were analyzed by for TGF-B1 and CTGF protein expression by Western blotting and immunostaining with specific antibodies. Representative gel profiles and densiitometric quantitation of protein bands. *P<0.01 vs. lean, **P<0.01 vs. ZDF
FIG. 12. Representative immunohistochemical staining for TGF-B1 and CTGF in the kidney cortex. Renal cortices from each treatment group were probed with specific antibodies against TGF-β1 and CTGF.
FIG. 13. Effect of LR-90 on kidney lipid peroxidaton. A. Kidney lipid peroxides were analyzed by measuring malondialdehyde (MDA) in tissue homogenates using the TBARS method. B. Correlation of lipid peroxidation with urinary albumin excretion rates. *P<0.05 vs. ZDF, **P<0.01 vs. ZDF.
The present Example presents the results of an investigation of the effects of LR-90, an inhibitor of AGE/ALE formation, in male Zucker diabetic fatty rats (ZDF, fa/fa) fed with Purina 5008 diet until 40 weeks of age, and their hetorozygous lean littermates (ZDF fa/+) as non-hyperglycemic controls. LR-90 at 50 mg/L of drinking water was given to a subgroup of ZDF rats after the rats developed spontaneous diabetes at 13 weeks of age. At 40 weeks of age, and before killing the animals, their weight was measured; HbA1c, plasma glucose, insulin, triglycerides, cholesterol, CRP and urinary albumin and creatinine concentrations were measured. After euthanizing all animals, organs such as the kidneys, eyeballs, liver, heart, aortae and pancreas were dissected and subjected to immunohistochemical staining, RT-PCR, Western blotting and microscopy.

[3] = tested on: Zucker diabetic fatty rats (ZDF, fa/fa); test: Pancreatic islet immunohistochemistry and PAMS staining (Example 2); format: in vivo, rat
Excerpt: FIG. 7. Immunohistochemical analysis and quantification of islet cells. ZDF GM fa/fa rats and lean control rats were fed with high fat diet for 30 weeks and received either nothing or LR-90 or LR-102 in their drinking water. Pancreatic sections from various groups of animals were stained with anti-insulin antibody or anti-glucagon antibody. A. Representative images with the overlay of the insulin (green) and glucagon (red staining). […] B. Insulin-positive β-cell-to-glucagon-ratio was also measured from these images.
FIG. 8. Periodic acid methenamine silver (PAMS) staining of pancreatic tissues. Sections from cryopreserved pancreas of each group of animals on the study were stained with PAMS and examined under light microscopy.
LR-90 at 50 mg/L of drinking water was given to a subgroup of ZDF rats after the rats developed spontaneous diabetes at 13 weeks of age. At 40 weeks of age, and before killing the animals, their weight was measured; HbA1c, plasma glucose, insulin, triglycerides, cholesterol, CRP and urinary albumin and creatinine concentrations were measured. After euthanizing all animals, organs such as the kidneys, eyeballs, liver, heart, aortae and pancreas were dissected and subjected to immunohistochemical staining, RT-PCR, Western blotting and microscopy.

[4] = tested on: Cybb, the gene encoding for the gp91phox subunit of NADPH; test: Kidney expression of Cybb (data not shown); format: in vivo, rat; conditions: ZDF rats

In the case of `CC(C)(Oc1ccc(NC(=O)Nc2ccc(Cc3ccc(NC(=O)Nc4ccc(OC(C)(C)C(=O)O)cc4)c(Cl)c3)cc2Cl)cc1)C(=O)O` [LR-90, methylene bis[4,4′-(2-chlorophenylureidophenoxyisobutyric acid)]], the “development of experimental type 1 diabetic nephropathy” value [1] is listed as “prevented”, the “reduction of kidney lipid peroxidation” value ([2]; ZDF animals, MDA by TBARS, Example 2) is listed as roughly 40% and the “glomerulosclerosis, tubular degeneration and collagen deposition” value ([2]; kidney of ZDF rats, FIGS. 9a and b) is listed as “prevented”. For the same compound, the “renal AGE and RAGE accumulation” value ([2]; kidney of ZDF rats, FIGS. 9c and d) was “reduced”, the “TGF-β1 and CTGF gene and protein expression, fibronectin and RAGE mRNA” value ([2]; kidneys of ZDF rats, FIGS. 10, 11 and 12) was “significantly attenuated” and the “PAMS staining of pancreatic islets” value ([3]; FIG. 8) was “amelioration”. The “number of undamaged insulin-secreting islet cells in the pancreas” value ([3]; FIGS. 7 and 8) was “significantly higher number” and the “increased kidney expression of Cybb” value [4] was “attenuated”.
